Source: ChEMBL document CHEMBL2150859, “Design, synthesis, and evaluation of 3,5-disubstituted 7-azaindoles as Trk inhibitors with anticancer and antiangiogenic activities” (J Med Chem, 2012)
Calls of active or inactive are those of the source. No cut-off for these calls is given here.

What was measured:
[1] = molecular target: RAC-alpha serine/threonine-protein kinase (Homo sapiens) (UniProt P31749); experiment: Binding affinity to AKT1 at 1 uM by high throughput binding assay relative to control
MCF7 [2] = experiment: Induction of apoptosis in human MCF7 cells assessed as increase in cleaved caspase-3 expression at 10 uM after 24 hrs by immunofluorescence staining method; type: functional, cell-based
[3] = molecular target: Tyrosine-protein kinase JAK2 (Homo sapiens) (UniProt O60674); experiment: Binding affinity to JAK2 at 1 uM by high throughput binding assay relative to control
[4] = molecular target: Tyrosine-protein kinase ABL1 (Homo sapiens) (UniProt P00519); experiment: Binding affinity to ABL1 at 1 uM by high throughput binding assay relative to control
[5] = molecular target: Serine/threonine-protein kinase PLK1 (Homo sapiens) (UniProt P53350); experiment: Binding affinity to PLK1 at 1 uM by high throughput binding assay relative to control
HUVEC [6] = experiment: Antiangiogenic activity in HUVEC assessed as inhibition of wound-induced cell migration after 16 hrs; type: functional, cell-based; details: Homo sapiens
[7] = molecular target: T1, High affinity nerve growth factor receptor (Homo sapiens, UniProt P04629); details: MCF7, 0.1 to 10 uM
Target sequence in this assay (P04629 33-796 limits assumed): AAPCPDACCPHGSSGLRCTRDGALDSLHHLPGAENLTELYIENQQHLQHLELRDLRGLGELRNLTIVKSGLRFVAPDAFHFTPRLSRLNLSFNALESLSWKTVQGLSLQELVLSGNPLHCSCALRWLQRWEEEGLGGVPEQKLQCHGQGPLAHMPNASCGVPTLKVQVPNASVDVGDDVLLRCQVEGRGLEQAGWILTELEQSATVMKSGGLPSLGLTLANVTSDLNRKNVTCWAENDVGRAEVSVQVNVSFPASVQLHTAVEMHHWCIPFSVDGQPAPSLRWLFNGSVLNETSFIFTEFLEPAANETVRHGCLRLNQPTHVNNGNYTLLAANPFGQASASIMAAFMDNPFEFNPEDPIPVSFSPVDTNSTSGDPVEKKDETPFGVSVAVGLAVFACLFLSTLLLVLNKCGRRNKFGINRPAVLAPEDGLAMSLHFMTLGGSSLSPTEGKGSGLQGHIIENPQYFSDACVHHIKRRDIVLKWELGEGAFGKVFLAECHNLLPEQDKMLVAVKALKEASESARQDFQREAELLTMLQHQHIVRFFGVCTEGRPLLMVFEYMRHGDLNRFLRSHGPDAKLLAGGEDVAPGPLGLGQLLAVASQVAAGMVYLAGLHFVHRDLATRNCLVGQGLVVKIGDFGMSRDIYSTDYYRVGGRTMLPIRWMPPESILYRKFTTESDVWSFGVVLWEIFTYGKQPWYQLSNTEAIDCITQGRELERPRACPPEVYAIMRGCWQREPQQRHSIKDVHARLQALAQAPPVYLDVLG
Description: Inhibition of TRKA-induced AKT phosphorylation in human MCF7 cells at 0.1 to 10 uM by Western blot analysis

MCF7 [8] = experiment: Induction of apoptosis in human MCF7 cells assessed as increase in Bax expression at 10 uM after 24 hrs by immunofluorescence staining method; type: functional, cell-based
[9] = molecular target: Glycogen synthase kinase-3 beta (Homo sapiens) (UniProt P49841); experiment: Binding affinity to GSK3beta at 1 uM by high throughput binding assay relative to control
[10] = molecular target: T2, Mast/stem cell growth factor receptor Kit (Homo sapiens, UniProt P10721); experiment: Inhibition of KIT by radiometric kinase assay
T2 sequence (P10721 whole entry): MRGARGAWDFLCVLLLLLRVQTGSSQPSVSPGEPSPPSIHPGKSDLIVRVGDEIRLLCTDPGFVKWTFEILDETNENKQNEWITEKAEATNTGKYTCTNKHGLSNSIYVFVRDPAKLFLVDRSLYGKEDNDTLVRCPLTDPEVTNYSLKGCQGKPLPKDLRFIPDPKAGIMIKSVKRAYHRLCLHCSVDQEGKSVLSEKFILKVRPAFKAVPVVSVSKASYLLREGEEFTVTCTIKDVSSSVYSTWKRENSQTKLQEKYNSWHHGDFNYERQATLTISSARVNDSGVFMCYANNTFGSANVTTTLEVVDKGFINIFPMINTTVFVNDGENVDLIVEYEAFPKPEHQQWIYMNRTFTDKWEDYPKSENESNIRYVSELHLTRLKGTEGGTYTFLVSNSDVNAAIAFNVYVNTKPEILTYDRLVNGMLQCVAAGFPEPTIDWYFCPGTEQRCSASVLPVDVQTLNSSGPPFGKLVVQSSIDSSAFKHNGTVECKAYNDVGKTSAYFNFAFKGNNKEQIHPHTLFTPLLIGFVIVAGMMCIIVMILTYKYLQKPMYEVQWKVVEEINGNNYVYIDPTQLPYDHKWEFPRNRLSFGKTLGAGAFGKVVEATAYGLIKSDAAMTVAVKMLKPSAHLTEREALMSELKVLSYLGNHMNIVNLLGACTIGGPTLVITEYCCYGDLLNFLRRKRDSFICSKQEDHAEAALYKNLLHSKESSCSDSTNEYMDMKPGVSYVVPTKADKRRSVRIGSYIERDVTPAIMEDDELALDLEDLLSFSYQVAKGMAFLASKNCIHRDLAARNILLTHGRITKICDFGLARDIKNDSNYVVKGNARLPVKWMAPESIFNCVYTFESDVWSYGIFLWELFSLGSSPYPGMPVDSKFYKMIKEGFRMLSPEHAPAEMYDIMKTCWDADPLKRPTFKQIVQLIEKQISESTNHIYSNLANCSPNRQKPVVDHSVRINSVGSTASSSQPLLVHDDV

[11] = molecular target: Serine/threonine-protein kinase PAK 1 (Homo sapiens) (UniProt Q13153); experiment: Binding affinity to PAK1 at 1 uM by high throughput binding assay relative to control
[12] = molecular target: Hypoxia-inducible factor 1-alpha (Homo sapiens) (UniProt Q16665); experiment: Inhibition of HIF1alpha-mediated VEGF production in human MCF7 cells under hypoxic condition at 0.1 to 10 uM after 6 hrs; type: cell-based
Hypoxia-inducible factor 1-alpha (Homo sapiens), sequence (Q16665 whole entry, looked up): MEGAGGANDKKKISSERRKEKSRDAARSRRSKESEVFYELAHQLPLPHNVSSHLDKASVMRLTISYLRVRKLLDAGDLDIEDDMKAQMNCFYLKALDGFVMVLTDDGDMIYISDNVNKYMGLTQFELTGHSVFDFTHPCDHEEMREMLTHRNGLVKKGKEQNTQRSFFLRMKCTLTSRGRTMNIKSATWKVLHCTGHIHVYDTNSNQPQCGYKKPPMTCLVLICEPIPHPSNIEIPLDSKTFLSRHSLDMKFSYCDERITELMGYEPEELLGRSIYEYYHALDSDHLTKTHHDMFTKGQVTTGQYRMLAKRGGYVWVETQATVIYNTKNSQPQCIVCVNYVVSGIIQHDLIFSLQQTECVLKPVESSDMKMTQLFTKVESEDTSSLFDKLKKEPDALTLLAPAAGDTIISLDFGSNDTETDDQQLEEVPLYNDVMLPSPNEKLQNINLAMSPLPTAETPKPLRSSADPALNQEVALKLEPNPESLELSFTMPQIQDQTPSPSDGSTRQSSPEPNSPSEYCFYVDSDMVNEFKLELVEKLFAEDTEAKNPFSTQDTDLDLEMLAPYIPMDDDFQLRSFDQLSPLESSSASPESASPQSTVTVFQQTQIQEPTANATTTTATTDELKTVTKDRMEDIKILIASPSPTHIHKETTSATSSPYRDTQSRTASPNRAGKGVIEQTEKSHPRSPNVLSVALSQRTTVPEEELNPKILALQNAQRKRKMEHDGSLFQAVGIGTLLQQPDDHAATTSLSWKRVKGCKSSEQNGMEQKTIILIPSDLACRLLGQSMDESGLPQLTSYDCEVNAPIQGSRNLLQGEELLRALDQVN

[13] = molecular target: Mitogen-activated protein kinase 3 (Homo sapiens) (UniProt P27361); experiment: Binding affinity to ERK1 at 1 uM by high throughput binding assay relative to control
MCF7 [14] = experiment: Inhibition of hypoxia-induced HIF1alpha expression in human MCF7 cells after 6 hrs; type: functional, cell-based
HUVEC [15] = experiment: Antiangiogenic activity against HUVEC assessed as inhibition of VEGF-induced tube formation after 10 hrs by phase-contrast microscopic analysis; type: functional, cell-based; details: Homo sapiens
[16] = molecular target: Rho-associated protein kinase 2 (Homo sapiens) (UniProt O75116); experiment: Binding affinity to ROCK2 at 1 uM by high throughput binding assay relative to control
[17] = molecular target: Focal adhesion kinase 1 (Homo sapiens) (UniProt Q05397); experiment: Binding affinity to FAK at 1 uM by high throughput binding assay relative to control
Focal adhesion kinase 1 (Homo sapiens), sequence (Q05397 2-1052 limits assumed): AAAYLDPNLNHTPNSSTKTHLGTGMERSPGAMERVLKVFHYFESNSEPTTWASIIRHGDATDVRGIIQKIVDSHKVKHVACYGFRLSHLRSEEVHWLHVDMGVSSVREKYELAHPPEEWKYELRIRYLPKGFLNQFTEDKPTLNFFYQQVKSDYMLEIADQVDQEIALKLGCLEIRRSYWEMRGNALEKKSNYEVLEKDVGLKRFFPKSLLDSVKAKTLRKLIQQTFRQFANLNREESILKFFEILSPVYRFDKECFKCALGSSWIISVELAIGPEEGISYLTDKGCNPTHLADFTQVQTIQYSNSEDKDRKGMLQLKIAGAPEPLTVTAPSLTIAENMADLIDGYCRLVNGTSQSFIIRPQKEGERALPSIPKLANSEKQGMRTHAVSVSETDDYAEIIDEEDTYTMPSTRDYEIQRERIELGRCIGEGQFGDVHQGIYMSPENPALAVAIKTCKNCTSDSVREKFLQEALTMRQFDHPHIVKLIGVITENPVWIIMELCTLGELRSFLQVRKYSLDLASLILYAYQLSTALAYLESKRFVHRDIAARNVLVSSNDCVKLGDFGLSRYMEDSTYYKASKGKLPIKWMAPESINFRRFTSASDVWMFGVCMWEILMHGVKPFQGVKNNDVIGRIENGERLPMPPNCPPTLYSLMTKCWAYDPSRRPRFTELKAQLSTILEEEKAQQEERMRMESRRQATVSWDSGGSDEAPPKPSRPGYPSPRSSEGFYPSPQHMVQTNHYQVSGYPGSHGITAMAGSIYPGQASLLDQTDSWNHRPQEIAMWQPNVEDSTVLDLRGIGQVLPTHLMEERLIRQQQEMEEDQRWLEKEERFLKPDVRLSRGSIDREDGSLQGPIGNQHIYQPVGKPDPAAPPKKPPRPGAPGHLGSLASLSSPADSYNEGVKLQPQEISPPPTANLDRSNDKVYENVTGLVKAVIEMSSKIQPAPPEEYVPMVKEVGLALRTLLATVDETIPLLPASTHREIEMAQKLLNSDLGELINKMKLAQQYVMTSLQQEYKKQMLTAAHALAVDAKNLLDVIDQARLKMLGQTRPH

[18] = molecular target: Serine/threonine-protein kinase pim-1 (Homo sapiens) (UniProt P11309); experiment: Binding affinity to PIM1 at 1 uM by high throughput binding assay relative to control
MCF7 [19] = experiment: Cytotoxicity against human MCF7 cells assessed as growth inhibition at 0.1 to 50 uM after 48 hrs by MTT assay; type: functional
[20] = molecular target: Serine/threonine-protein kinase PLK3 (Homo sapiens) (UniProt Q9H4B4); experiment: Binding affinity to PLK3 at 1 uM by high throughput binding assay relative to control
MCF7 [21] = details: Homo sapiens
Description: (§1) Cytotoxicity against human MCF7 cells after 48 hrs by MTT assay

[22] = molecular target: Mitogen-activated protein kinase 14 (Homo sapiens) (UniProt Q16539); experiment: Binding affinity to P38alpha at 1 uM by high throughput binding assay relative to control
[23] = molecular target: Epidermal growth factor receptor (Homo sapiens) (UniProt P00533); experiment: Binding affinity to EGFR at 1 uM by high throughput binding assay relative to control
[24] = molecular target: Dual specificity mitogen-activated protein kinase kinase 1 (Homo sapiens) (UniProt Q02750); experiment: Binding affinity to MEK1 at 1 uM by high throughput binding assay relative to control
MCF7 [25] = experiment: cells; details: Homo sapiens, MCF7, 48 h
Description: as §1

MCF7 [26] = experiment: Induction of apoptosis in human MCF7 cells assessed as nuclear condensation at 10 uM after 24 hrs by DAPI staining; type: functional, cell-based
SK-BR-3 = experiment: Cytotoxicity against human SKBR3 cells after 48 hrs by MTT assay; type: functional, cell-based
[27] = molecular target: Aurora kinase B (Homo sapiens) (UniProt Q96GD4); experiment: Binding affinity to AURKB at 1 uM by high throughput binding assay relative to control
MCF7 [28] = experiment: Induction of apoptosis in human MCF7 cells assessed as decrease in Bcl-2 expression at 10 uM after 24 hrs by immunofluorescence staining method; type: functional, cell-based
[29] = molecular target: Aurora kinase A (Homo sapiens) (UniProt O14965); experiment: Binding affinity to AURKA at 1 uM by high throughput binding assay relative to control
[30] = molecular target: Phosphatidylinositol 4,5-bisphosphate 3-kinase catalytic subunit alpha isoform (Homo sapiens, UniProt P42336); experiment: Binding affinity to PI3KCA at 1 uM by high throughput binding assay relative to control
[31] = molecular target: 3-phosphoinositide-dependent protein kinase 1 (Homo sapiens) (UniProt O15530); experiment: Binding affinity to PDPK1 at 1 uM by high throughput binding assay relative to control
[32] = molecular target: Fibroblast growth factor receptor 2 (Homo sapiens) (UniProt P21802); experiment: Binding affinity to FGFR2 at 1 uM by high throughput binding assay relative to control
[33] = molecular target: Hepatocyte growth factor receptor (Homo sapiens) (UniProt P08581); experiment: Binding affinity to MET at 1 uM by high throughput binding assay relative to control
MCF7 [34] = experiment: Induction of apoptosis in human MCF7 cells assessed as increase in cytochrome C expression at 10 uM after 24 hrs by immunofluorescence staining method; type: functional, cell-based
[35] = molecular target: RAC-beta serine/threonine-protein kinase (Homo sapiens) (UniProt P31751); experiment: Binding affinity to AKT2 at 1 uM by high throughput binding assay relative to control
RAC-beta serine/threonine-protein kinase (Homo sapiens), sequence (P31751 whole entry): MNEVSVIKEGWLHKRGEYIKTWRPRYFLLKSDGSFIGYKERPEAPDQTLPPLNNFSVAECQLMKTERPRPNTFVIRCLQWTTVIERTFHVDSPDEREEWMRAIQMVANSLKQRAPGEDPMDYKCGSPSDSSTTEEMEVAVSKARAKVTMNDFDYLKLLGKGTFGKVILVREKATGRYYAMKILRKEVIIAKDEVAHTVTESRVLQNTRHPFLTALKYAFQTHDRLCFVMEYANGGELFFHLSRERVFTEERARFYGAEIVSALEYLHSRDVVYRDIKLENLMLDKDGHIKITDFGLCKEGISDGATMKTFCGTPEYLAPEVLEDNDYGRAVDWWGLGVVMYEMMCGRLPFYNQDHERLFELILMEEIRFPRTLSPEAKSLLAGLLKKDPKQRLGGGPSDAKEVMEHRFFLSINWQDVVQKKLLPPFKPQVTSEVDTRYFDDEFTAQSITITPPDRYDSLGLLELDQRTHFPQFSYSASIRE

[36] = molecular target: Platelet-derived growth factor receptor alpha (Homo sapiens) (UniProt P16234); experiment: Binding affinity to PDGFRalpha at 1 uM by high throughput binding assay relative to control
[37] = molecular target: T1, High affinity nerve growth factor receptor; details: MCF7, 0.1 to 10 uM; remark: listed apart in the source
Target sequence in this assay (P04629 33-796 limits assumed): as the sequence (P04629 33-796 limits assumed) above
Description: Inhibition of TRKA phosphorylation in human MCF7 cells at 0.1 to 10 uM by Western blot analysis

MCF7 [38] = experiment: Induction of apoptosis in human MCF7 cells assessed as nuclear fragmentation at 10 uM after 24 hrs by DAPI staining; type: functional, cell-based
MCF7 [39] = experiment: Induction of apoptosis in human MCF7 cells assessed as DNA strand breaks at 10 uM after 24 hrs by TUNEL assay; type: functional, cell-based
[40] = molecular target: T1, High affinity nerve growth factor receptor; experiment: Inhibition of TRKA assessed as [gamma33P]ATP incorporation into substrate
[41] = molecular target: cAMP-dependent protein kinase catalytic subunit alpha (Homo sapiens) (UniProt P17612); experiment: Binding affinity to PKACalpha at 1 uM by high throughput binding assay relative to control
[42] = molecular target: Cyclin-dependent kinase 19 (Homo sapiens) (UniProt Q9BWU1); experiment: Binding affinity to CDK11 at 1 uM by high throughput binding assay relative to control
Cyclin-dependent kinase 19 (Homo sapiens), sequence (Q9BWU1 whole entry): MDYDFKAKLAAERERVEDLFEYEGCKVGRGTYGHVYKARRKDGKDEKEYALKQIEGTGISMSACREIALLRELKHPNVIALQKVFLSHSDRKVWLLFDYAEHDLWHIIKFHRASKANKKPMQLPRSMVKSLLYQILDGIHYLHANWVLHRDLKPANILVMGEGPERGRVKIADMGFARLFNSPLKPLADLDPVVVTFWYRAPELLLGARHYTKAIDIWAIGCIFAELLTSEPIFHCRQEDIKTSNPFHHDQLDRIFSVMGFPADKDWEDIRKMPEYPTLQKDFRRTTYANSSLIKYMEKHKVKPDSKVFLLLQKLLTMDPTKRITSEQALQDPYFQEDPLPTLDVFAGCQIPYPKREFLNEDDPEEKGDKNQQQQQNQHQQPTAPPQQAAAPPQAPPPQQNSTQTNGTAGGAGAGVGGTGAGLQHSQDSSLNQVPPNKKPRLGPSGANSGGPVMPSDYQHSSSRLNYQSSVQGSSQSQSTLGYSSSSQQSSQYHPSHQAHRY

[43] = molecular target: Dual specificity mitogen-activated protein kinase kinase 2 (Homo sapiens) (UniProt P36507); experiment: Binding affinity to MEK2 at 1 uM by high throughput binding assay relative to control
Dual specificity mitogen-activated protein kinase kinase 2 (Homo sapiens), sequence (P36507 whole entry): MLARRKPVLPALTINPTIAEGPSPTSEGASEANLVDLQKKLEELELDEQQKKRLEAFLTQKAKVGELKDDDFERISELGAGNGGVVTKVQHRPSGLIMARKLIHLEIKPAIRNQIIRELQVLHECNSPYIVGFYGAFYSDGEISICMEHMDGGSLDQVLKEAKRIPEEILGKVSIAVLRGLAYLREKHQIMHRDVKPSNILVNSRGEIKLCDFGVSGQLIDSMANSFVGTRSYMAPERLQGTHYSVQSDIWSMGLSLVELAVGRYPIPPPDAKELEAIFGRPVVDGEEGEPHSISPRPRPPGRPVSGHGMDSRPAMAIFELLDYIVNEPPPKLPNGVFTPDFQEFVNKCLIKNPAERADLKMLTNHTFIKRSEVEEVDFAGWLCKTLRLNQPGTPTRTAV

[44] = molecular target: T2, Mast/stem cell growth factor receptor Kit; experiment: Binding affinity to KIT at 1 uM by high throughput binding assay relative to control
[45] = molecular target: Serine/threonine-protein kinase B-raf (Homo sapiens) (UniProt P15056); experiment: Binding affinity to BRAF at 1 uM by high throughput binding assay relative to control
[46] = molecular target: BDNF/NT-3 growth factors receptor (Homo sapiens) (UniProt Q16620); experiment: Binding affinity to TRKB at 1 uM by high throughput binding assay relative to control

With `Nc1cc(NS(=O)(=O)c2cccc(C(F)(F)F)c2)cc(-c2cnc3[nH]cc(-c4ccncc4)c3c2)c1` the Activity [1] was 94%, the Activity (MCF7 [2]) was “Active” and the Activity [3] was 34%. The Activity [4] was 81%, the Activity [5] was 100% and the inhibition (HUVEC [6]) was “Dose-dependent effect”. The inhibition [7] was “Active”, the Activity (MCF7 [8]) was “Active” and the Activity [9] was 81%. For the same molecule, the IC50 [10] was 145 nM, the Activity [11] was 79% and the inhibition [12] was “Active”. The Activity [13] was 100%, the inhibition (MCF7 [14]) was “Dose-dependent effect” and the inhibition (HUVEC [15]) was “Dose-dependent effect”. For the same molecule, the Activity [16] was 50%, the Activity [17] was 88% and the Activity [18] was 97%. The “growth inhibition (GI)” value (MCF7 [19]) was 40%, the Activity [20] was 75% and the Activity (MCF7 [21]) was “Dose-dependent effect”. The Activity [22] was 100%, the Activity [23] was 100% and the Activity [24] was 100%. For the same molecule, the IC50 (MCF7 [25]) was 4200 nM, the Activity (MCF7 [26]) was “Active” and the Activity (SK-BR-3) was “Dose-dependent effect”. The Activity [27] was 85%, the Activity (MCF7 [28]) was “Active” and the Activity [29] was 100%. It also gave an Activity [30] of 64%, an Activity [31] of 90% and an Activity [32] of 61%. The Activity [33] was 96%, the Activity (MCF7 [34]) was “Active” and the Activity [35] was 100%. For the same molecule, the Activity [36] was 69%, the inhibition [37] was “Active” and the Activity (MCF7 [38]) was “Active”. For the same molecule, the Activity (MCF7 [39]) was “Active”, the IC50 [40] was 1.67 nM and the Activity [41] was 88%. It also gave an Activity [42] of 26%, an Activity [43] of 100% and an Activity [44] of 3%. The Activity [45] was 100% and the Activity [46] was 1.2%.
